Converted amounts (≈) assume the structure as drawn. “And” between values parts separate entries of the source, which are not always exact repeats. Equal values may be shown once.
What was measured:
[1] = tested on: M. tb. 311; test: microbe, parasite or virus in culture; assay type: cell-based; conditions: Mycobacterium tuberculosis, 99% (2 log) inhibition, pH 5.8
[2] = tested on: Mycobacterium tuberculosis (laboratory mutant, nitrosoguanidine induced, resistant to pyrazinamide); assay type: cell-based; set-up: MIC: unit not given beside the values; conditions: for MIC: pH 5.8
[3] = tested on: Mycobacterium tuberculosis (laboratory mutant, nitrosoguanidine induced, resistant to pyrazinoic acid); assay type: cell-based; set-up: MIC: unit not given beside the values
[4] = tested on: Mycobacterial populations; conditions: cited from earlier work

## C=CCOC(=O)c1cnccn1 [Allyl Pyrazinoate]
[1]
  MIC: 6.25 µg/mL (≈ 38.1 µM)

## CCCOC(=O)c1cnccn1 [n-Propyl Pyrazinoate]
[2]
  MIC: 12.5 and 6.25
[1]
  MIC: 6.25 µg/mL (≈ 37.6 µM)

## Cc1ccc(OC(=O)c2cnccn2)cc1 [p-Tolyl Pyrazinoate]
[2]
  MIC: 12.5 and 25
[3]; pH 5.8
  MIC: 12.5 and 6.25
[1]
  MIC: 12.5 µg/mL (≈ 58.4 µM)

## Nc1ccc(C(=O)O)c(O)c1 [p-aminosalicylic acid]
[4]; combination with streptomycin
  suppression of emergence of resistance: can delay development of streptomycin resistance

## NC(=O)c1cnccn1 [pyrazinamide]
[2]
  concentration required to achieve a 99% inhibition of growth: > 200 µg/mL
[3]
  concentration required to achieve a 99% inhibition of growth: > 200 µg/mL
[1]
  MIC: > 200 µg/mL
[4]; when used alone
  development of resistance: resistance develops quickly

## O=C(OCC(F)(F)F)c1cnccn1 [β, β, β-Trifluoroethyl Pyrazinoate]
[1]
  MIC: 25 µg/mL (≈ 121 µM)
